Laboratory results published in US9000174B2, “4-phenylsulfonamidopiperidines as calcium channel blockers” (Purdue Pharma L.P., priority 2004, dated 2015).
Structures can show the parent of a compound that is named as a salt.

What was measured:
[1] = target: T1, N-type calcium channel (NTCC) (Homo sapiens, UniProt Q00975); assay: FLIPR calcium mobilization (and/or electrophysiological) assay for N-type calcium channel; assay type: cell-based; details: calcium mobilization and/or electrophysiological in vitro assay; differentiated IMR32 cells, 90 mM KCl, 5 μM nitrendipine
T1 construct: endogenous in cells; host or cells: differentiated IMR32 cells (ATCC)
Method: Unless noted otherwise, cell culture reagents were purchased from Life Technologies of Rockville, Md. IMR32 cells (American Type Culture Collection, ATCC, Manassas, Va.) were routinely cultured in growth medium consisting of minimum essential medium containing 10% fetal bovine serum (FBS, Hyclone, Logan, Utah), 100 U/mL penicillin, 100 μg/mL streptomycin, 2 mM L-glutamine, 1 mM sodium pyruvate, and 1×MEM non-essential amino acids. 80-90% confluent flasks of cells were differentiated using the following differentiation medium: Growth medium plus 1 mM dibutyryl cyclic AMP (Sigma, St. Louis, Mo.), and 2.5 μM bromodeoxyuridine (Sigma). Cells were differentiated for 8 days by replacing differentiation medium every 2-3 days.
One day prior to performing this assay, differentiated IMR32 cells were treated with 1× CellStripper, and seeded on poly-D-lysine-coated 96-well clear-bottom black plates (Becton Dickinson, Franklin Lakes, N.J.) at 200,000 cells/well. On the day of the assay, the cell plates were washed with IMR32 buffer (127 mM NaCl, 1 mM KCl, 2 mM MgCl2, 700 μM NaH2PO4, 5 mM CaCl2, 5 mM NaHCO3, 8 mM HEPES, 10 mM glucose, pH 7.4), then pre-stimulated with KCl and loaded as follows: 0.05 mL of IMR32 buffer, 0.05 mL of each compound tested diluted in IMR32 buffer containing 20 μM nitrendipine (Sigma), and 0.1 mL KCl dissolved in IMR32 buffer, plus Fluo-4 were added (3 μM final concentration, Molecular Probes, Eugene, Oreg.). Final test compound concentrations ranged from about 846 pM to about 17 μM, final nitrendipine concentration was 5 μM, and final KCl concentration was 90 mM. After 1 hour, the cells were washed twice with 0.05 mL of each compound tested in nitrendipine-containing IMR32 buffer (no KCl or Fluo-4), and then replaced with 0.1 mL of each compound tested in nitrendipine-containing IMR32 buffer. Plates were then transferred to a Fluorimetric Imaging Plate Reader (FLIPR^96, Molecular Devices, Inc., Sunnyvale, Calif.) for assay. The FLIPR measured basal Fluo-4 fluorescence for 315 seconds (i.e., 5 minutes and 15 seconds), then added 0.1 mL KCl agonist dissolved in IMR32 buffer and measured fluorescence for another 45 seconds. Final test compound concentrations on the cells after FLIPR read ranged from about 846 pM to about 17 μM, final nitrendipine concentration was 5 μM, and final KCl concentration was 90 mM. Data were collected over the entire time course and analyzed using Excel, Graph Pad Prism (version 3.02, Graph Pad, San Diego, Calif.), or Activity Base (version 5.1, IDBS, Parsippany, N.J.) software.
N-type calcium channel expressing HEK-293 cells were created in two stages. Stage 1 was created as follows. The rat α1b, and β3 cDNA expression constructs (2.5 μg each) were co-transfected into human embryonic kidney (HEK-293) cells by Lipofectamine Plus reagent (Invitrogen), as per manufacturer's instructions. 24 hours later, cells were split in limiting dilution into multiple 96-well plates in selection media containing 20 μg/mL blasticidin and 500 μg/mL geneticin, and incubated for 3 weeks at 37° C., 5% CO2, 95% humidity. Plates containing ≦1 clone per well were cultured until wells positive for single clones were confluent. Individual clones were then arrayed into columns of a destination 96-well plate, and partly split into 6-well plates for culture maintenance. Array plates were washed once with IMR32 buffer and cells loaded for 1 hour with 0.1 mL of IMR32 buffer containing Fluo-4 (3 μM final concentration, Molecular Probes). Then they were washed twice with 0.1 mL of IMR32 buffer, and replaced with 0.1 mL IMR32 buffer. Plates were then transferred to a FLIPR^96 for assay. The FLIPR measured basal Fluo-4 fluorescence for 315 seconds, then added 0.1 mL KCl agonist dissolved in IMR32 buffer and measured fluorescence for another 45 seconds. Final KCl concentration was 90 mM. Data were collected over the entire time course and analyzed using Excel, Graph Pad Prism, or Activity Base software. […]

[2] = target: T2, L-type calcium channel (LTCC) (Rattus norvegicus, UniProt P22002); assay: FLIPR calcium mobilization (and/or electrophysiological) assay for L-type calcium channel; assay type: cell-based; details: calcium mobilization and/or electrophysiological in vitro assay; differentiated A7r5 cells, 90 mM KCl
T2 construct: differentiated A7r5 cells were trypsinized, then seeded on tissue culture treated 96-well clear-bottom black plates; endogenous in cells; host or cells: differentiated A7r5 cells (ATCC)
Method: A7r5 (ATCC) cells were maintained and routinely cultured in A7r5 growth medium consisting of Dulbecco's Modified Eagles Medium containing 10% FBS, 100 U/mL penicillin, 100 μg/mL streptomycin, 4 mM L-glutamine, and 0.15% sodium bicarbonate. 80-90% confluent flasks of cells were differentiated using the following differentiation medium: A7r5 Growth Medium plus 1 mM dibutyryl cyclic AMP (Sigma). Cells were differentiated for 8 days by replacing differentiation medium every 2-3 days.
One day prior to performing this assay, differentiated A7r5 cells were trypsinized, then seeded on tissue culture treated 96-well clear-bottom black plates (Becton Dickinson, Franklin Lakes, N.J.) at a dilution of 1:1 from a confluent T150 cm^2 flask. On the day of the assay, the plates were washed with A7r5 wash buffer (127 mM NaCl, 2 mM MgCl2, 700 μM NaH2PO4, 5 mM CaCl2, 5 mM NaHCO3, 8 mM HEPES, 10 mM glucose, pH 7.4), then loaded with 0.1 mL of A7r5 wash buffer containing Fluo-4 (3 μM final concentration, Molecular Probes, Eugene, Oreg.). After 1 hour, the cells were washed with 0.1 mL A7r5 wash buffer and resuspended in 0.05 mL A7r5 assay buffer that was composed of A7r5 wash buffer plus 50 μM valinomycin (Sigma). Plates were then transferred to a FLIPR^96 for assay. The FLIPR measured basal Fluo-4 fluorescence for 15 seconds, then added 0.05 mL of each compound tested diluted in A7r5 assay buffer at final concentrations ranging from about 846 pM to about 17 μM. Fluo-4 fluorescence was then measured for 5 minutes. 0.1 mL KCl agonist dissolved in A7r5 assay buffer was then added to the cells to produce a final concentration of 90 mM KCl, and fluorescence was measured for another 45 seconds. Data were collected over the entire time course and analyzed using Excel, Graph Pad Prism, or Activity Base software.

T1 sequence (Q00975 whole entry): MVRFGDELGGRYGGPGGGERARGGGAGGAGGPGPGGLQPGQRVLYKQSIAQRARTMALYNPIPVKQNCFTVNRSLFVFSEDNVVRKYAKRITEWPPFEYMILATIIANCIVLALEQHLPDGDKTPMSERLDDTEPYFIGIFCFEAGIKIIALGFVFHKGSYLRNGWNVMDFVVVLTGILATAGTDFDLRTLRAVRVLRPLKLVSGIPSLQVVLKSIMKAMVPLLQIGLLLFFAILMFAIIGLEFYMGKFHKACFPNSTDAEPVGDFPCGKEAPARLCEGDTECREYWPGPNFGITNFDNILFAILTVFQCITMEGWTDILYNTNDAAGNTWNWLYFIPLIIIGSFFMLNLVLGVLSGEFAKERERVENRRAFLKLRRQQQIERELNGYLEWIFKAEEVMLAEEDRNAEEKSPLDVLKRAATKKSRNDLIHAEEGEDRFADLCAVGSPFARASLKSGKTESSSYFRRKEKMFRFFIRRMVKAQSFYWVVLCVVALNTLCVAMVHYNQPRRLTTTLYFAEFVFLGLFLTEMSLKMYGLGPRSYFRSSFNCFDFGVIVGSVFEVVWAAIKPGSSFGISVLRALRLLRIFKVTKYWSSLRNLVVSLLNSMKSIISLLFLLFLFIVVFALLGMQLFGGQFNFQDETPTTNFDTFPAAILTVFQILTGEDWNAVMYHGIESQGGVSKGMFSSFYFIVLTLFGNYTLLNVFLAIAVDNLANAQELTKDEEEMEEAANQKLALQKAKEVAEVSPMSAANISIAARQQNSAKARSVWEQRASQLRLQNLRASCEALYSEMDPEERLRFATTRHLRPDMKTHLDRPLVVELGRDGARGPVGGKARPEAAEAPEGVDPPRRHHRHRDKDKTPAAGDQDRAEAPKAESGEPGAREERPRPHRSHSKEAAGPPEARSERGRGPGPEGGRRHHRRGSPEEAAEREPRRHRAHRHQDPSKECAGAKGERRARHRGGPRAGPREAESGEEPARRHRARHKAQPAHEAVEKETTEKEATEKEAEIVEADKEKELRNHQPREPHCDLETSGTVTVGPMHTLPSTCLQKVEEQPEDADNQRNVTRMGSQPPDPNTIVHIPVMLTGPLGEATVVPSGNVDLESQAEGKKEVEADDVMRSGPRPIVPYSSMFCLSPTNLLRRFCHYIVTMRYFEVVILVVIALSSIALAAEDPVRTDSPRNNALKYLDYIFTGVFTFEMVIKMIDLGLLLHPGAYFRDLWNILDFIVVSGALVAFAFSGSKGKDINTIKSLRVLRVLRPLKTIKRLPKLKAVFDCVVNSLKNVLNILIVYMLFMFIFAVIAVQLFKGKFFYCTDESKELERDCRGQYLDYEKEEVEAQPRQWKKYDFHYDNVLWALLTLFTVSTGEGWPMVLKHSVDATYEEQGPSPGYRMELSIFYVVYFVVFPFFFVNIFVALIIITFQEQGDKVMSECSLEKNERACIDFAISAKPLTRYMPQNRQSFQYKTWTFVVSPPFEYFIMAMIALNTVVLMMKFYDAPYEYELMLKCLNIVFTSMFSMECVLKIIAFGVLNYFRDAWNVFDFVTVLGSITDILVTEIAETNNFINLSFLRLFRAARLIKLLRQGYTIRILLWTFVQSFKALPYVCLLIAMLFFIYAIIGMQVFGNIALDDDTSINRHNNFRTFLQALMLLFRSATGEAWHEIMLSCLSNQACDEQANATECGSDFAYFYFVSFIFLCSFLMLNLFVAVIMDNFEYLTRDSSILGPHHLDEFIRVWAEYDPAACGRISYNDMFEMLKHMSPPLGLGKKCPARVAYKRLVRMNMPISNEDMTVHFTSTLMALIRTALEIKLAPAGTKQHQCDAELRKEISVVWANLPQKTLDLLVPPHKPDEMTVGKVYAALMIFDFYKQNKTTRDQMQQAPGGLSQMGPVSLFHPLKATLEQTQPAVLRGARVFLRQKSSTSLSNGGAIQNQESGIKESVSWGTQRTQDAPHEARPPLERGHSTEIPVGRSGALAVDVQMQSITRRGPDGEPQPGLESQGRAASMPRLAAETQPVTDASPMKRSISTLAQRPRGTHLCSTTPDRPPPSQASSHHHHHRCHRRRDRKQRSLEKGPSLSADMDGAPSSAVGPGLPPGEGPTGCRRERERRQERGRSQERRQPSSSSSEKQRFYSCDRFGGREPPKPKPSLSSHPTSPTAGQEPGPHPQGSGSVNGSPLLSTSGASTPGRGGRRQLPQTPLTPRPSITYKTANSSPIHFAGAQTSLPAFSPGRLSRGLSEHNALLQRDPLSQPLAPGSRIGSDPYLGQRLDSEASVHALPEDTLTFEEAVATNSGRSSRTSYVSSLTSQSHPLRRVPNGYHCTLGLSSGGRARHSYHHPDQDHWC
T1 sequence (P54284 whole entry partner): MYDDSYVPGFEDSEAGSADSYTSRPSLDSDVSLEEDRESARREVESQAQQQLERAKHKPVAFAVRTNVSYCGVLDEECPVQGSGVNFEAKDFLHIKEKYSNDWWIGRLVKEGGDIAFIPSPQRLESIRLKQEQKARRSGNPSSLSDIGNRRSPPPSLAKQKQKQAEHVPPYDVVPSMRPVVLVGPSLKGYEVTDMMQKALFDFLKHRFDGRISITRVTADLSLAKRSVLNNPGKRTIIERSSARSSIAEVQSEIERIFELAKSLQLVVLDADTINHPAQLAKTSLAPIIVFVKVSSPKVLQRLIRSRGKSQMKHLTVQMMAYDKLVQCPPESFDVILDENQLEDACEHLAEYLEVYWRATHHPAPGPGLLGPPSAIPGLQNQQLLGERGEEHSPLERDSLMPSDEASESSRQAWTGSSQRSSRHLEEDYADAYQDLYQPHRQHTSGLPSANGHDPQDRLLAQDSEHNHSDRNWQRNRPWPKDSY
T1 sequence (P54289 25-956 partner limits assumed): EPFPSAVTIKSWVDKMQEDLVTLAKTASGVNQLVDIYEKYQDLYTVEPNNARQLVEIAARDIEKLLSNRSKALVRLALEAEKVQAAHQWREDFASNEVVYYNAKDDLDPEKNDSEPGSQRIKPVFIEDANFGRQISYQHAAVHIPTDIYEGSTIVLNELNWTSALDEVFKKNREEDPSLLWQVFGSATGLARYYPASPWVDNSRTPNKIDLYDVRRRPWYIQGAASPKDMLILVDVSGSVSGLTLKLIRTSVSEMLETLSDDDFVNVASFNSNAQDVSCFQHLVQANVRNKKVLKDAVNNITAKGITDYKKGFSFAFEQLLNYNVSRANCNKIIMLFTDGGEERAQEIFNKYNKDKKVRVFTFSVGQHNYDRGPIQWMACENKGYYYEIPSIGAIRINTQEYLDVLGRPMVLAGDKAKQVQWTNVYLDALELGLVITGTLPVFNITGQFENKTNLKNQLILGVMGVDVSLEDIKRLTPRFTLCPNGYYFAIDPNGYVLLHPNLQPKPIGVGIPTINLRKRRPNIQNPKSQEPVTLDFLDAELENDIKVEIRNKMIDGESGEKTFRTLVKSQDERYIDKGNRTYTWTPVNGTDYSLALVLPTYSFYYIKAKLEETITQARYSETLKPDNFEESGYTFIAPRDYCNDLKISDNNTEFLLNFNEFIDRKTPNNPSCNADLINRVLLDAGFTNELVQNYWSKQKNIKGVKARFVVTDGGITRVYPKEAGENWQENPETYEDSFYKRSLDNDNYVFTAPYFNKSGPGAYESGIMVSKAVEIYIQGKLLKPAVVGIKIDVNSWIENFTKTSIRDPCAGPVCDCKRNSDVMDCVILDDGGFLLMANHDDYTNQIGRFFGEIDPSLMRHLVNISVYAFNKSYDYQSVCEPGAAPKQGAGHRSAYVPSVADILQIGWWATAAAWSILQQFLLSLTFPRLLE
T1 sequence (P54289 957-1103 partner limits assumed): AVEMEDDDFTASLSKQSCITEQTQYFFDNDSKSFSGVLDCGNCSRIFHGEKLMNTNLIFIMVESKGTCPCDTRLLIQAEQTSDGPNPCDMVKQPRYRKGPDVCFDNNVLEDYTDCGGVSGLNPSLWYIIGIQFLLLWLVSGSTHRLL

| Structure (SMILES) | IC50 [1] [nM] | IC50 [2] [nM] |
| --- | --- | --- |
| CC(C)C[C@H](N)C(=O)N1CCC(N(C2CC2)S(=O)(=O)c2ccccc2)CC1 [(2S) N-[1-(2-amino-4-methylpentanoyl)piperidin-4-yl]-N-cyclopropyl-benzenesulfonamide] | 4280 | 10000 to 20000 |
| CN[C@@H](CC(C)C)C(=O)N1CCC(N(C2CC2)S(=O)(=O)c2cccc(C(F)(F)F)c2)CC1 [(2S) N-cyclopropyl-N-[1-(4-methyl-2-methylamino-pentanoyl)piperidin-4-yl]-3-trifluoromethylbenzenesulfonamide] | 360 | 10000 |
| CCCc1ccc(S(=O)(=O)N2CCC(N(C3CC3)S(=O)(=O)c3cccc(C(F)(F)F)c3)CC2)cc1 [N-Cyclopropyl-N-[1-(4-propylphenylsulfonyl)piperidin-4-yl]-3-trifluoromethylbenzenesulfonamide] | 440 | 940 |
| O=S(=O)(c1cccc(C(F)(F)F)c1)N(C1CC1)C1CCN(CCOC(c2ccc(F)cc2)c2ccc(F)cc2)CC1 [N-Cyclopropyl-N-{1-[2-bis(4-fluorophenyl)methoxyethyl]piperidin-4-yl}-3-trifluoromethylbenzenesulfonamide] | 780 | 2230 |
| O=S(=O)(c1cccc(C(F)(F)F)c1)N(C1CC1)C1CCN(Cc2ccnc3ccccc23)CC1 [N-cyclopropyl-N-[1-(4-quinolinylmethyl)piperidin-4-yl]-3-trifluoromethylbenzenesulfonamide] | 860 | 1700 |
| O=C(CC=C(c1ccc(F)cc1)c1ccc(F)cc1)N1CCC(N(C2CC2)S(=O)(=O)c2ccccc2)CC1 [N-cyclopropyl-N-{1-[4,4-bis(4-fluorophenyl)but-3-enoyl]piperidin-4-yl}benzenesulfonamide] | 1240 | 2590 |
| O=C(CCC(c1ccc(F)cc1)c1ccc(F)cc1)N1CCC(N(C2CC2)S(=O)(=O)c2ccccc2)CC1 [N-cyclopropyl-N-{1-[4,4-bis(4-fluorophenyl)butanoyl]piperidin-4-yl}benzenesulfonamide] | 1090 | 3240 |
| NC(Cc1ccc(F)cc1)C(=O)N1CCC(N(C2CC2)S(=O)(=O)c2cccc(C(F)(F)F)c2)CC1 (centres unmarked) [N-{1-[2-Amino-3-(4-fluorophenyl)propionyl]piperidin-4-yl}-N-cyclopropyl-3-trifluoromethylbenzenesulfonamide] | 180 | 8600 |

Results, then the compound that gave them:

| IC50 [1] [nM] | IC50 [2] [nM] | Structure (SMILES) |
| --- | --- | --- |
| 870 | > 20000 | CN[C@@H](CC(C)C)C(=O)N1CCC(N(C(C)C)S(=O)(=O)c2cccc(C(F)(F)F)c2)CC1 [(2S) N-Isopropyl-N-[1-(4-methyl-2-methylaminopentanoyl)-piperidin-4-yl]-3-trifluoromethylbenzenesulfonamide fumarate] |
| 390 | 5120 | CN[C@@H](CC(C)C)C(=O)N1CCC(N(C)S(=O)(=O)c2cccc(C(F)(F)F)c2)CC1 [(2S) N-Methyl-N-[1-(4-methyl-2-methylaminopentanoyl)-piperidin-4-yl]-3-trifluoromethylbenzenesulfonamide fumarate] |
| 950 | 9120 | CN[C@@H](CC(C)C)C(=O)N1CCC(N(CC(C)C)S(=O)(=O)c2cccc(C(F)(F)F)c2)CC1 [(2S) N-i-butyl-N-[1-(4-methyl-2-methylaminopentanoyl)piperidin-4-yl]-3-trifluoromethylbenzenesulfonamide] |
| 390 | 10000 to 20000 | CNC(Cc1ccccc1C)C(=O)N1CCC(N(C2CC2)S(=O)(=O)c2cccc(C(F)(F)F)c2)CC1 (centres unmarked) [N-Cyclopropyl-N-[1-(2-methylamino-3-o-tolylpropionyl)piperidin-4-yl]-3-trifluoromethylbenzenesulfonamide] |
| 280 | 10000 to 20000 | CCCC(CC(=O)N1CCC(N(C2CC2)S(=O)(=O)c2cccc(C(F)(F)F)c2)CC1)N1CCSCC1 (centres unmarked) [N-Cyclopropyl-N-[1-(3-thiomorpholin-4-yl-hexanoyl)piperidin-4-yl]-3-trifluoromethylbenzenesulfonamide] |
| 110 | 3780 | O=S(=O)(c1cccc(C(F)(F)F)c1)N(C1CC1)C1CCN(CCCC(c2ccc(F)cc2)c2ccc(F)cc2)CC1 [N-Cyclopropyl-N-{1-[4,4-bis(4-fluorophenyl)butyl]piperidin-4-yl}-3-trifluoromethylbenzenesulfonamide] |
| 300 | 4570 | COc1ccc(C(=O)N2CCC(N(C3CC3)S(=O)(=O)c3cccc(C(F)(F)F)c3)CC2)cc1C(F)(F)F [N-Cyclopropyl-N-{1-[(3-trifluoromethyl-4-methoxy)benzoyl]piperidin-4-yl}-3-trifluoromethylbenzenesulfonamide] |
| 970 | 1430 | O=C(CCC(c1ccc(F)cc1)c1ccc(F)cc1)N1CCC(N(C2CC2)S(=O)(=O)c2cccc(F)c2)CC1 [N-cyclopropyl-N-{1-[4,4-bis(4-fluorophenyl)butanoyl]piperidin-4-yl}-3-fluorobenzenesulfonamide] |
